Experimental data published in patent publication US20260250289A1, “BICYCLIC HETEROCYCLES AND THEIR USE AS WRN INHIBITORS” (Novartis AG, priority 2022, published 2026).
pIC50: −log10 of the molar value.

Legend:
SW48 cells = experiment: Proliferation assay SW48 (CellTiterGlo); assay type: cell-based; settings: Homo sapiens, SW48, 96 h, SW48 colon carcinoma cells, 96 hours, CellTiterGlo; geometric mean of at least 2; read-out: Proliferation Assay SW48 GI50
Outline: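 SW48 cells, 2,000/well, treated after overnight seeding with eight 3-fold compound dilutions (0.1% DMSO) for 96 hours at 37° C. Viability read as ATP by CellTiterGlo luminescence, normalised to a day-0 plate and vehicle to give % growth; GI50 is geometric mean of ≥2 independent replicates.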

[1] = target: T1, WRN helicase (aa N517-P1238) (Homo sapiens, UniProt Q14191); experiment: WRN ATPase assay (DNA dependent ATP hydrolysis, ADP-Glo); assay type: biochemical; settings: 3 hours pre-incubation, 300 micromolar ATP, FLAP26 DNA; geometric mean of at least 2
T1 construct: The core helicase motif of the WRN protein (aa N517-P1238) was produced for this assay; His (N); ZZ (N); 3C protease cleavage site (N); made in house; host or cells: Sf21 insect cells (baculovirus; virus and BIICs made in SF9)
T1 sequence (Q14191 517-1238): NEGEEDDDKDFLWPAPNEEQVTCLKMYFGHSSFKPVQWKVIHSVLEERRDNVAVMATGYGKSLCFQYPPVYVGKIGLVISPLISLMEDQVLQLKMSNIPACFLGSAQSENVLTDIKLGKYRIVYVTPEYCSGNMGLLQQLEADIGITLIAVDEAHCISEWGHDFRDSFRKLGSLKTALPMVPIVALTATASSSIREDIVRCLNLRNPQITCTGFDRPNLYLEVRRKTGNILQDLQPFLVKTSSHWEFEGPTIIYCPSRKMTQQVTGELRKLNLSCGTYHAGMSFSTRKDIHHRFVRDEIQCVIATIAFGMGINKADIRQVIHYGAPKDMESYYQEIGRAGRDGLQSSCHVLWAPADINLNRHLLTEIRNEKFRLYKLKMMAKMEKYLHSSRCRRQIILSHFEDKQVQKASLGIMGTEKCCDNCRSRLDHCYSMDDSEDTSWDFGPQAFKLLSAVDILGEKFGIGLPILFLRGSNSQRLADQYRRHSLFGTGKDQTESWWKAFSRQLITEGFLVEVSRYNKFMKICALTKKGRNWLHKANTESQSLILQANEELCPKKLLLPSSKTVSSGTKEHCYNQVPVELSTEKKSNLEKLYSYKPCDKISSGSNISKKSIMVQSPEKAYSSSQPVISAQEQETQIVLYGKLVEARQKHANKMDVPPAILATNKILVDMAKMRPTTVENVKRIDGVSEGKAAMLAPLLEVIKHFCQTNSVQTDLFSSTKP
Outline: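 DNA-dependent ATP hydrolysis detected as ADP by ADP-Glo luminescence, using 300 μM ATP, 0.2 nM FLAP26 substrate and 10 nM WRN aa N517-P1238 (Tris pH 7.5 buffer, 2 mM MgCl2, 50 mM NaCl). IC50s fitted from normalized duplicate half-log dilutions; reported as geometric means of at least 2 replicates.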

DLD1-WRN-KO cells = experiment: Proliferation assay DLD1-WRN-KO (CellTiterGlo, off-target effects); assay type: cell-based; settings: 96 hours, geometric mean of at least 2
Outline: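 DLD1 cells with CRISPR knockout of WRN were exposed overnight-seeded to eight 3-fold compound dilutions (0.1% DMSO) for 96 h at 37 °C. Viability was read as ATP by CellTiterGlo luminescence against a day-0 plate, giving GI50 and residual viability at top concentration.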

GI50 (SW48 cells) | pIC50 [1] | GI50 (DLD1-WRN-KO cells) | Structure (SMILES)
> 10000 nM | 6.70 | > 10000 nM | Cc1c(N2CCN(C(=O)c3cnccc3O)CC2)c(=O)n2nc(C3=CCOCC3)nc2n1CC(=O)Nc1ccc(C(F)(F)F)cc1 [Example 24, 2-(2-(3,6-dihydro-2H-pyran-4-yl)-6-(4-(4-hydroxynicotinoyl)piperazin-1-yl)-5-methyl-7-oxo-[1,2,4]triazolo[1,5-a]pyrimidin-4(7H)-yl)-N-(4-(trifluoromethyl)phenyl)acetamide]
4000 nM | 6.70 | > 10000 nM | Cc1cccc(O)c1C(=O)N1CCN(c2c(C)n(CC(=O)Nc3ccc(C(F)(F)F)cc3)c3nc(C4=CCOCC4)nn3c2=O)CC1 [Example 25, 2-(2-(3,6-dihydro-2H-pyran-4-yl)-6-(4-(2-hydroxy-6-methylbenzoyl)piperazin-1-yl)-5-methyl-7-oxo-[1,2,4]triazolo[1,5-a]pyrimidin-4(7H)-yl)-N-(4-(trifluoromethyl)phenyl)acetamide]
> 10000 nM | 6.52 | > 10000 nM | Cc1cc(C(=O)N2CCN(c3c(C)n(CC(=O)Nc4ccc(C(F)(F)F)cc4)c4nc(C5=CCOCC5)nn4c3=O)CC2)c(O)cn1 [Example 26, 2-(2-(3,6-dihydro-2H-pyran-4-yl)-6-(4-(5-hydroxy-2-methylisonicotinoyl)piperazin-1-yl)-5-methyl-7-oxo-[1,2,4]triazolo[1,5-a]pyrimidin-4(7H)-yl)-N-(4-(trifluoromethyl)phenyl)acetamide]
> 10000 nM | 6.52 | > 10000 nM | Cc1ccnc(O)c1C(=O)N1CCN(c2c(C)n(CC(=O)Nc3ccc(C(F)(F)F)cc3)c3nc(C4=CCOCC4)nn3c2=O)CC1 [Example 27, 2-(2-(3,6-dihydro-2H-pyran-4-yl)-6-(4-(2-hydroxy-4-methylnicotinoyl)piperazin-1-yl)-5-methyl-7-oxo-[1,2,4]triazolo[1,5-a]pyrimidin-4(7H)-yl)-N-(4-(trifluoromethyl)phenyl)acetamide]
> 10000 nM | 6.30 | > 10000 nM | Cc1c(N2CCN(C(=O)c3c(F)ccnc3O)CC2)c(=O)n2nc(C3=CCOCC3)nc2n1CC(=O)Nc1ccc(C(F)(F)F)cc1 [Example 28, 2-(2-(3,6-dihydro-2H-pyran-4-yl)-6-(4-(4-fluoro-2-hydroxynicotinoyl)piperazin-1-yl)-5-methyl-7-oxo-[1,2,4]triazolo[1,5-a]pyrimidin-4(7H)-yl)-N-(4-(trifluoromethyl)phenyl)acetamide]
2000 nM | 7.00 | > 10000 nM | Cc1c(N2CCN(C(=O)Nc3nccs3)CC2)c(=O)n2nc(C3=CCOCC3)nc2n1CC(=O)Nc1ccc(C(F)(F)F)cc1 [Example 29, 4-(2-(3,6-dihydro-2H-pyran-4-yl)-5-methyl-7-oxo-4-(2-oxo-2-((4-(trifluoromethyl)phenyl)amino)ethyl)-4,7-dihydro-[1,2,4]triazolo[1,5-a]pyrimidin-6-yl)-N-(thiazol-2-yl)piperazine-1-carboxamide]
2000 nM | 7.00 | > 10000 nM | CCc1ccc(NC(=O)Cn2c(C)c(N3CCN(C(C)=O)CC3)c(=O)n3nc(C4=CCOCC4)nc23)cc1Cl [Example 30, 2-(6-(4-acetylpiperazin-1-yl)-2-(3,6-dihydro-2H-pyran-4-yl)-5-methyl-7-oxo-[1,2,4]triazolo[1,5-a]pyrimidin-4(7H)-yl)-N-(3-chloro-4-ethylphenyl)acetamide]
6000 nM | 6.70 | > 10000 nM | CCc1ccc(NC(=O)Cn2c(C)c(N3CCN(C(C)=O)CC3)c(=O)n3nc(C4=CCCCO4)nc23)cc1Cl [Example 31, 2-(6-(4-acetylpiperazin-1-yl)-2-(3,4-dihydro-2H-pyran-6-yl)-5-methyl-7-oxo-[1,2,4]triazolo[1,5-a]pyrimidin-4(7H)-yl)-N-(3-chloro-4-ethylphenyl)acetamide]
3000 nM | 6.10 | > 10000 nM | CC(=O)N1CCN(c2c(C)n(CC(=O)Nc3ccc(C(F)(F)F)cc3Br)c3nc(C4=CCOCC4)nn3c2=O)CC1 [Example 32, 2-(6-(4-acetylpiperazin-1-yl)-2-(3,6-dihydro-2H-pyran-4-yl)-5-methyl-7-oxo-[1,2,4]triazolo[1,5-a]pyrimidin-4(7H)-yl)-N-(2-bromo-4-(trifluoromethyl)phenyl)acetamide]
8000 nM | 6.00 | > 10000 nM | CCc1c(N2CCN(C(=O)CN)CC2)c(=O)n2nc(C3=CCC(OC)CC3)nc2n1CC(=O)Nc1ccc(C(F)(F)F)cc1 (stereo not drawn) [Example 33, 2-(5-ethyl-6-(4-glycylpiperazin-1-yl)-2-(4-methoxycyclohex-1-en-1-yl)-7-oxo-[1,2,4]triazolo[1,5-a]pyrimidin-4(7H)-yl)-N-(4-(trifluoromethyl)phenyl)acetamide]
7000 nM | 5.30 | > 10000 nM | CCc1c(N2CCN(C(=O)c3ncnc(C)c3OC)CC2)c(=O)n2nc(C3=CCOCC3)nc2n1CC(=O)Nc1ccc(C(F)(F)F)cc1C [Example 34, 2-(2-(3,6-dihydro-2H-pyran-4-yl)-5-ethyl-6-(4-(5-methoxy-6-methylpyrimidine-4-carbonyl)piperazin-1-yl)-7-oxo-[1,2,4]triazolo[1,5-a]pyrimidin-4(7H)-yl)-N-(2-methyl-4-(trifluoromethyl)phenyl)acetamide]
300 nM | 7.40 | > 10000 nM | Cc1c(N2CCN(C(=O)c3c(O)ccc4ccnn34)CC2)c(=O)n2nc(C3=CCOCC3)nc2n1CC(=O)Nc1ccc(C(F)(F)F)cc1 [Example 35, 2-(2-(3,6-dihydro-2H-pyran-4-yl)-6-(4-(6-hydroxypyrazolo[1,5-a]pyridine-7-carbonyl)piperazin-1-yl)-5-methyl-7-oxo-[1,2,4]triazolo[1,5-a]pyrimidin-4(7H)-yl)-N-(4-(trifluoromethyl)phenyl)acetamide]
> 10000 nM | 7.00 | > 10000 nM | Cc1c(N2CCN(C(=O)c3ccncc3O)CC2)c(=O)n2nc(C3=CCOCC3)nc2n1CC(=O)Nc1ccc(C(F)(F)F)cc1 [Example 36, 2-(2-(3,6-dihydro-2H-pyran-4-yl)-6-(4-(3-hydroxyisonicotinoyl)piperazin-1-yl)-5-methyl-7-oxo-[1,2,4]triazolo[1,5-a]pyrimidin-4(7H)-yl)-N-(4-(trifluoromethyl)phenyl)acetamide]
90 nM | 7.05 | > 10000 nM | CCc1c(N2CCN(C(=O)c3ncc4c(c3O)OCC4)CC2)c(=O)n2nc(C3=CCOCC3)nc2n1CC(=O)Nc1ccc(C(F)(F)F)cc1C [Example 37, 2-(2-(3,6-dihydro-2H-pyran-4-yl)-5-ethyl-6-(4-(7-hydroxy-2,3-dihydrofuro[3,2-c]pyridine-6-carbonyl)piperazin-1-yl)-7-oxo-[1,2,4]triazolo[1,5-a]pyrimidin-4(7H)-yl)-N-(2-methyl-4-(trifluoromethyl)phenyl)acetamide]
100 nM | 7.52 | > 10000 nM | CCc1c(N2CCN(C(=O)c3c(F)ccc(F)c3O)CC2)c(=O)n2nc(C3=CCCCO3)nc2n1CC(=O)Nc1ccc(C(F)(F)F)cc1 [Example 38, 2-(6-(4-(3,6-difluoro-2-hydroxybenzoyl)piperazin-1-yl)-2-(3,4-dihydro-2H-pyran-6-yl)-5-ethyl-7-oxo-[1,2,4]triazolo[1,5-a]pyrimidin-4(7H)-yl)-N-(4-(trifluoromethyl)phenyl)acetamide]
300 nM | 7.52 | 4000 nM | CCc1c(N2CCN(C(=O)c3ccc(F)c(F)c3O)CC2)c(=O)n2nc(C3=CCCCO3)nc2n1CC(=O)Nc1ccc(C(F)(F)F)cc1 [Example 39, 2-(6-(4-(3,4-difluoro-2-hydroxybenzoyl)piperazin-1-yl)-2-(3,4-dihydro-2H-pyran-6-yl)-5-ethyl-7-oxo-[1,2,4]triazolo[1,5-a]pyrimidin-4(7H)-yl)-N-(4-(trifluoromethyl)phenyl)acetamide]
600 nM | 7.40 | > 10000 nM | CCc1c(N2CCN(C(=O)c3c(O)ccc4ccncc34)CC2)c(=O)n2nc(C3=CCOCC3)nc2n1CC(=O)Nc1ccc(C(F)(F)F)cc1C [Example 40, 2-(2-(3,6-dihydro-2H-pyran-4-yl)-5-ethyl-6-(4-(7-hydroxyisoquinoline-8-carbonyl)piperazin-1-yl)-7-oxo-[1,2,4]triazolo[1,5-a]pyrimidin-4(7H)-yl)-N-(2-methyl-4-(trifluoromethyl)phenyl)acetamide]
500 nM | 7.15 | > 10000 nM | CCc1c(N2CCN(C(=O)c3ccnc(F)c3O)CC2)c(=O)n2nc(C3=CCOCC3)nc2n1CC(=O)Nc1ccc(C(F)(F)F)cc1Cl [Example 42, N-(2-chloro-4-(trifluoromethyl)phenyl)-2-(2-(3,6-dihydro-2H-pyran-4-yl)-5-ethyl-6-(4-(2-fluoro-3-hydroxyisonicotinoyl)piperazin-1-yl)-7-oxo-[1,2,4]triazolo[1,5-a]pyrimidin-4(7H)-yl)acetamide]
